Where two headings read alike, the source gives them in different places.
Experiments:
E. coli ATCC25922 = test: Broth microdilution MIC/MBC (ISO 20776-1); assay type: cell-based, Escherichia coli; conditions: for MBC: E. coli ATCC25922, >99.99% reduction of growth; for MIC: E. coli ATCC25922, MH II broth, 35 °C, 24 h
Method: (§1) Bacterial strains and cell lines were obtained from the American Type Culture Collection (ATCC).[59] […] Antimicrobial activity was tested in Müeller Hinton (MH) II broth (Becton Dickinson). For anticancer activity assay, the following reagents from Merk were used: 3-(4,5-dimethylthiazol-2-yl)-2,5-diphenyltetrazolium bromide (MTT), sodium dodecyl sulfate (SDS) and HCl. The solubilized formazan product was spectrophotometrically quantified in a Power Wave XS (Bio Tek, Winooski, VT, USA) microplate reader. The HL-60 and PC-3 cells were grown in RPMI-1640 medium with stable glutamine (Biowest) supplemented with 10% (v/v) of heat-inactivated fetal bovine serum (FBS, Biowest) and 1% (v/v) of antibiotic–antimycotic solution (Biowest). The SKOV-3 cells were grown in McCoy's 5A medium with L-glutamine (Biowest) supplemented with 10% (v/v) heat-inactivated FBS, and 1% (v/v) antibiotic–antimycotic solution. The MCF-7 cells were grown in Eagle's MEM (Minimal Essential Medium) medium with stable glutamine (Biowest), supplemented with 10% (v/v) heat-inactivated FBS 1% (v/v) MEM non-essential amino acids (Biowest), 1% (v/v) antibiotic–antimycotic solution, and 1 mM sodium pyruvate (Merck). The MCF-10A cells were grown in Ham's F-12K (Kaighn's) Medium with stable glutamine (Gibco) supplemented with 5% (v/v) heat-inactivated FBS, 1% (v/v) MEM non-essential amino acids, 1% (v/v) antibiotic–antimycotic solution, 5 μg mL^−1 insulin, 0.04 μg mL^−1 hydrocortisone (Merck), and 15 ng mL^−1 human Epidermal Growth Factor (hEGF, PeproTech).
(§2) The in vitro antibacterial activity was determined according to ISO 20776-1.[88] Among the tested microorganisms were Gram-negative rods, E. coli ATCC25922 and P. aeruginosa ATCC27853, and Gram-positive cocci, S. aureus ATCC29213 and E. faecalis ATCC29212. The selected bacterial species represented the most common etiologic agents of human infections and are used for quality control of antimicrobial susceptibility testing.[89] The test procedure included the determination of MICs and MBCs of complexes and their free ligands. MIC and MBC determinations of ciprofloxacin, as the reference antibiotic, were also performed. All compounds were dissolved in DMSO to reach the maximum 512 mg L^−1 concentration. […] The assay consisted of preparing 2-fold dilutions of the substances in a liquid growth medium MH II and inoculating them with a standardized suspension of microorganisms at a McFarland density of 0.5 (≈10^8 CFU mL^−1). The culture plates were incubated at 35 °C for 24 h. The lowest concentration of the compound inhibiting visible bacterial growth was specified as MIC, and the concentration that reduced bacterial growth by >99.99% after counting live bacteria on the plates compared to the positive control was defined as MBC.

P. aeruginosa ATCC27853 = test: Broth microdilution MIC/MBC (ISO 20776-1); assay type: cell-based, Pseudomonas aeruginosa; conditions: for MBC: P. aeruginosa ATCC27853, >99.99% reduction of growth; for MIC: P. aeruginosa ATCC27853, MH II broth, 35 °C, 24 h
Method: as §1, §2

S. aureus ATCC29213 = test: Broth microdilution MIC/MBC (ISO 20776-1); assay type: cell-based, Staphylococcus aureus; conditions: for MBC: S. aureus ATCC29213, >99.99% reduction of growth; for MIC: S. aureus ATCC29213, MH II broth, 35 °C, 24 h
Method: as §1, §2

E. faecalis ATCC29212 = test: Broth microdilution MIC/MBC (ISO 20776-1); assay type: cell-based, Enterococcus faecalis; conditions: for MBC: E. faecalis ATCC29212, >99.99% reduction of growth; for MIC: E. faecalis ATCC29212, MH II broth, 35 °C, 24 h
Method: as §1, §2

HL-60 cells = test: MTT cytotoxicity assay; assay type: cell-based, human; conditions: MTT, read-out: IC50 ± SD
Method: (§3) The cytotoxicities for studied compounds were evaluated against leukemia cells (HL-60), as well as ovarian (SKOV-3), prostate (PC-3), and breast (MCF-7) cancer cell lines. The potential selectivity of these compounds towards cancer cells was assessed by determination of their cytotoxicities towards breast non-cancerous cells (MCF-10A). For comparison, cisplatin was added to the cytotoxicity assays.
as §1
(§4) The cells were cultured in 96-well plates and incubated with the tested compound for 24 h and 48 h. All experiments were performed in exponentially growing cultures. The 0.03 M solutions of the compounds in DMSO were appropriately diluted using culture media. The maximal final concentration of DMSO in each well was 0.1%. The cytotoxicity of the compounds was measured by determining cell viability with a colorimetric test based on 3-(4,5-dimethylthiazol-2-yl)-2,5-diphenyltetrazolium bromide (MTT). MTT stock solution was added to each well to a final concentration of 0.5 mg mL^−1 and incubated for 4 h at 37 °C; following formazan crystals were dissolved by the addition of sodium dodecyl sulfate (SDS) solution (10% SDS in 0.001 M HCl). MTT and SDS were added directly to the cell culture. The compound's IC50 values (concentration required to reduce the viability of cells by 50% compared with the control cells) were calculated from the data obtained with the MTT assay.

MCF-7 cells = test: MTT cytotoxicity assay; assay type: cell-based, human; conditions: MTT, read-out: IC50 ± SD
Method: as §3, §1, §4

PC-3 cells = test: MTT cytotoxicity assay; assay type: cell-based, human; conditions: MTT, read-out: IC50 ± SD
Method: as §3, §1, §4

SKOV-3 cells = test: MTT cytotoxicity assay; assay type: cell-based, human; conditions: MTT, read-out: IC50 ± SD
Method: as §3, §1, §4

MCF-10A cells = test: MTT cytotoxicity assay; conditions: for IC50: read-out: IC50 ± SD, MCF-10A (non-cancerous), MTT, * precipitation of the complex
Method: as §3, §1, §4

**Q.** Which MBC (E. coli ATCC25922) does the source give for `[C-]#[O+].[C-]#[O+].[C-]#[O+].[Re][O]c1cccc2cccnc12.c1c[nH]cn1` [complex 1, [Re(CO)3(Q)Him]] here?
**A.** 256/256 mg L^−1

**Q.** What about the MIC (E. coli ATCC25922) of the same compound?
**A.** 256/256 mg L^−1

**Q.** What about the MBC (P. aeruginosa ATCC27853) of the same compound?
**A.** > 512 mg/L

**Q.** And the MIC (P. aeruginosa ATCC27853)?
**A.** 128 mg/L

**Q.** And the MBC (S. aureus ATCC29213)?
**A.** > 512 mg/L

**Q.** And the MIC (S. aureus ATCC29213)?
**A.** 256 mg/L

**Q.** What about the MBC (E. faecalis ATCC29212) of the same compound?
**A.** > 512 µg/mL

**Q.** And the MIC (E. faecalis ATCC29212)?
**A.** 64 µg/mL

**Q.** And the IC50 (HL-60 cells; HL-60, 24 h)?
**A.** 4.3 ± 0.2 µM

**Q.** What about the IC50 (HL-60 cells; HL-60, 48 h) of the same compound?
**A.** 4 ± 1 µM

**Q.** And the IC50 (MCF-7 cells; MCF-7, 24 h)?
**A.** 34 ± 4 µM

**Q.** What about the IC50 (MCF-7 cells; MCF-7, 48 h) of the same compound?
**A.** 30 ± 7 µM

**Q.** What about the IC50 (PC-3 cells; PC-3, 24 h) of the same compound?
**A.** 28 ± 6 µM

**Q.** And the IC50 (PC-3 cells; PC-3, 48 h)?
**A.** 27 ± 4 µM

**Q.** What about the IC50 (SKOV-3 cells; SKOV-3, 24 h) of the same compound?
**A.** 36 ± 5 µM

**Q.** And the IC50 (SKOV-3 cells; SKOV-3, 48 h)?
**A.** 39 ± 3 µM

**Q.** And the IC50 (MCF-10A cells; 24 h)?
**A.** 39 ± 1 µM

**Q.** What about the IC50 (MCF-10A cells; 48 h) of the same compound?
**A.** 24 ± 1 µM

**Q.** For `Cc1ccc2cccc([O][Re])c2n1.Cc1ncc[nH]1.[C-]#[O+].[C-]#[O+].[C-]#[O+]` [complex 6, [Re(CO)3(MeQ)MeHim]], which MBC (E. coli ATCC25922) is on record?
**A.** >512/>512 mg L^−1

**Q.** What about the MIC (E. coli ATCC25922) of the same compound?
**A.** >512/>512 mg L^−1

**Q.** And the MBC (P. aeruginosa ATCC27853)?
**A.** >512/>512 mg L^−1

**Q.** What about the MIC (P. aeruginosa ATCC27853) of the same compound?
**A.** >512/>512 mg L^−1

**Q.** What about the MBC (S. aureus ATCC29213) of the same compound?
**A.** 512 mg/L

**Q.** And the MIC (S. aureus ATCC29213)?
**A.** 64 mg/L

**Q.** And the MBC (E. faecalis ATCC29212)?
**A.** 256 µg/mL

**Q.** What about the MIC (E. faecalis ATCC29212) of the same compound?
**A.** 64 µg/mL

**Q.** And the IC50 (HL-60 cells; HL-60, 24 h)?
**A.** 14 ± 1 µM

**Q.** What about the IC50 (HL-60 cells; HL-60, 48 h) of the same compound?
**A.** 9 ± 1 µM

**Q.** What about the IC50 (MCF-7 cells; MCF-7, 24 h) of the same compound?
**A.** 44 ± 1 µM

**Q.** What about the IC50 (MCF-7 cells; MCF-7, 48 h) of the same compound?
**A.** 35 ± 6 µM

**Q.** And the IC50 (PC-3 cells; PC-3, 24 h)?
**A.** 54 ± 7 µM

**Q.** What about the IC50 (PC-3 cells; PC-3, 48 h) of the same compound?
**A.** 22 ± 5 µM

**Q.** What about the IC50 (SKOV-3 cells; SKOV-3, 24 h) of the same compound?
**A.** 32 ± 7 µM

**Q.** What about the IC50 (SKOV-3 cells; SKOV-3, 48 h) of the same compound?
**A.** 30 ± 9 µM

**Q.** And the IC50 (MCF-10A cells; 24 h)?
**A.** 66 ± 1 µM

**Q.** What about the IC50 (MCF-10A cells; 48 h) of the same compound?
**A.** 35 ± 1 µM

**Q.** How did the MBC (E. coli ATCC25922) turn out when `Cc1cc(C)[nH]n1.Cc1ccc2cccc([O][Re])c2n1.[C-]#[O+].[C-]#[O+].[C-]#[O+]` [complex 7, [Re(CO)3(MeQ)Hdmpz]] was run?
**A.** >512/>512 mg L^−1

**Q.** What about the MIC (E. coli ATCC25922) of the same compound?
**A.** >512/>512 mg L^−1

**Q.** What about the MBC (P. aeruginosa ATCC27853) of the same compound?
**A.** >512/>512 mg L^−1

**Q.** And the MIC (P. aeruginosa ATCC27853)?
**A.** >512/>512 mg L^−1

**Q.** What about the MBC (S. aureus ATCC29213) of the same compound?
**A.** >512/>512 mg L^−1

**Q.** And the MIC (S. aureus ATCC29213)?
**A.** >512/>512 mg L^−1

**Q.** And the MBC (E. faecalis ATCC29212)?
**A.** > 512 µg/mL

**Q.** What about the MIC (E. faecalis ATCC29212) of the same compound?
**A.** 128 µg/mL

**Q.** What about the IC50 (HL-60 cells; HL-60, 24 h) of the same compound?
**A.** 13 ± 1 µM

**Q.** And the IC50 (HL-60 cells; HL-60, 48 h)?
**A.** 12 ± 1 µM

**Q.** And the IC50 (MCF-7 cells; MCF-7, 24 h)?
**A.** 27 ± 8 µM

**Q.** And the IC50 (MCF-7 cells; MCF-7, 48 h)?
**A.** 19 ± 4 µM

**Q.** What about the IC50 (PC-3 cells; PC-3, 24 h) of the same compound?
**A.** 16 ± 2 µM

**Q.** And the IC50 (PC-3 cells; PC-3, 48 h)?
**A.** 18 ± 4 µM

**Q.** What about the IC50 (SKOV-3 cells; SKOV-3, 24 h) of the same compound?
**A.** 29 ± 5 µM

**Q.** And the IC50 (SKOV-3 cells; SKOV-3, 48 h)?
**A.** 26 ± 5 µM

**Q.** What about the “solubility in the cytotoxicity assay” value (MCF-10A cells; MCF-10A cell line culture medium) of the same compound?
**A.** precipitated at higher concentrations

**Q.** And the IC50 (MCF-10A cells; 24 h)?
**A.** > 25 µM

**Q.** And the IC50 (MCF-10A cells; 48 h)?
**A.** > 25 µM

Source: PMC11152041, “Tricarbonyl rhenium(I) complexes with 8-hydroxyquinolines: structural, chemical, antibacterial, and anticancer characteristics” (RSC Advances, 2024)
